In one experiment the test system is KG-1 cells. The experiment in a line: IFN-γ production in KG-1 cells (ELISA). It counts as cell-based, human. The settings on record: IL-18 50 nM, 16 to 24 hours. The method, then: (§1) Two assays show the bioactivity of IL-12 and IL-18 alone. NK-92 is a natural killer line derived from a patient with malignant […] lymphoma. KG-1 is a myelomonocytic line derived from a patient with acute myelogenous leukemia. NK-92 and KG-1 cells constitutively express the IL-12 and IL-18 receptors, respectively.
(§2) KG-1 cells were cultured in serum-free medium for 24 hours, and then plated at 1×10^6 cells/ml in 96-well plates. As indicated, IL-18 (50 nM) or DEX (20 nM) were added. NK-92 cells were cultured in the presence of 10 U/ml IL-2, and plated at 2.5×10^4 viable (Trypan Blue negative) cells/ml in 96-well plates. As indicated, IL-12 (10 pM) or DEX (20 nM) were added. The KG-1 and NK-92 cells were incubated for 16 to 24 hours, and the amount of IFN-γ in the culture medium was determined using the Biosource Cytoscreen IFN-γ ELISA kit.

A further experiment relates to NK-92 cells. The experiment in a line: IFN-γ production in NK-92 cells (ELISA). The class given is cell-based, human. The conditions noted are these: IL-12 10 pM, 16 to 24 hours. Here is the method: as §1, §2

On to Interleukin-18 [IL-18], for which the IFN-γ production result in the experiment with KG-1 cells is “induce IFN-γ production”.
For Interleukin-12 [IL-12], the IFN-γ production result in the experiment on NK-92 cells is recorded as “induce IFN-γ production”.
